The target of the assay is T1, Bcl-2 protein (Recombinant Human Bcl-2 Protein) (Homo sapiens, UniProt P10415).
T1 construct: purchased Novus NBP2-34889
Nature of the assay: Binding evaluation of mixture library compounds to Bcl-2 using AS-MS (affinity selection mass spectrometry). Conditions: for ASMS ratio (%) n = 1 / ASMS ratio (%) n = 2: ASMS Ratio(%)=(A−C)/B×100; for ASMS ratio (%) n = 1: replicate n = 1; for ASMS ratio (%) n = 2: replicate n = 2. The essentials: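 ASMS Ratio (%) was calculated as (A−C)/B×100, where A is the protein sample after SEC, B the protein-free sample without SEC and C the protein-free sample after SEC. Each compound was at […] in a 1200-member pool with 20 μM Bcl-2, incubated 1 h at 23° C.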

Setting [1] is: AS-MS, mixture of 1200 compounds, Bcl-2.
The mark [2] stands for this setting: AS-MS on the mixture of 1200 library compounds.

T1 sequence (P10415 whole entry): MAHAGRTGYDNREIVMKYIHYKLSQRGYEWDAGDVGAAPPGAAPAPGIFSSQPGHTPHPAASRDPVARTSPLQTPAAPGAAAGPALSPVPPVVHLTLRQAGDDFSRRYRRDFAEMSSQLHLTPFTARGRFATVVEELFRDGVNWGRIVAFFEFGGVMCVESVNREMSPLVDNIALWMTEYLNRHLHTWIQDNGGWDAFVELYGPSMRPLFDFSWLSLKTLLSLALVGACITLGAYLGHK

For the compound “4-[4-[[4-(3-Ethoxyphenyl)thiophen-2-yl]methyl]piperazin-1-yl]-N-propylbenzamide [B1M048-01]”, under setting [1], the “ASMS ratio (%) n = 1” value is 0.9% and the “ASMS ratio (%) n = 2” value turned out to be 0.3%.

As for `CCOc1cncc(-c2cc(CN3CCN(c4ccc(C(=O)NS(=O)(=O)c5ccc(NCCSc6ccccc6)c([N+](=O)[O-])c5)nn4)CC3)cc(OCC)c2)c1` [B2Q082-01, 6-[4-[[3-Ethoxy-5-(5-ethoxypyridin-3-yl)phenyl]methyl]piperazin-1-yl]-N-[3-nitro-4-(2-phenylsulfanylethylamino)phenyl]sulfonylpyridazine-3-carboxamide], where the note is “AS-MS, mixture library, Bcl-2”, the “ASMS ratio (%) n = 1” value is listed as 21.3% and the “ASMS ratio (%) n = 2” value is on record as 8.5%.

Turning to `CCOc1cccc(C#Cc2cc(C(=O)N3CCN(c4ccc(C(=O)N(CC)CC)nn4)CC3)cc(C(F)(F)F)c2)c1` [B4J019-01, 6-[4-[3-[2-(3-Ethoxyphenyl)ethynyl]-5-(trifluoromethyl)benzoyl]piperazin-1-yl]-N,N-diethylpyridazine-3-carboxamide], under setting [2], the “ASMS ratio (%) n = 1” value is −0.5% and the “ASMS ratio (%) n = 2” value was −2.1%.

Regarding `CCOc1cccc(-c2ccc(C(=O)N3CCN(c4ccc(C(=O)NS(=O)(=O)c5ccc(NCCSc6ccccc6)c(C(F)(F)F)c5)cc4)CC3)c3ccccc23)c1` [B2R035-01, 4-[4-[4-(3-Ethoxyphenyl)naphthalene-1-carbonyl]piperazin-1-yl]-N-[4-(2-phenylsulfanylethylamino)-3-(trifluoromethyl)phenyl]sulfonylbenzamide], the “ASMS ratio (%)” value is, setting by setting: (n = 1) 8.3%; (n = 2) 0.9%.

For `CCOc1cncc(-c2cc(CN3CCN(c4ccc(C(=O)NS(=O)(=O)CC56CC7CC(CC(C7)C5)C6)cc4)CC3)cc(OC(C)C)c2)c1` [B2A058-01, N-(1-Adamantylmethylsulfonyl)-4-[4-[[3-(5-ethoxypyridin-3-yl)-5-propan-2-yloxyphenyl]methyl]piperazin-1-yl]benzamide], where the note is “AS-MS, mixture library, Bcl-2”, the “ASMS ratio (%) n = 1” value was 4.8% and the “ASMS ratio (%) n = 2” value was −10.6%.

Consider `CCOc1cccc(-c2cnn(-c3cc(C(=O)N4CCN(c5ccc(C(=O)NS(=O)(=O)c6ccc(NCCSc7ccccc7)c(C(F)(F)F)c6)nn5)CC4)cc(C(F)(F)F)c3)c2)c1` [B2R021-01, 6-[4-[3-[4-(3-Ethoxyphenyl)pyrazol-1-yl]-5-(trifluoromethyl)benzoyl]piperazin-1-yl]-N-[4-(2-phenylsulfanylethylamino)-3-(trifluoromethyl)phenyl]sulfonylpyridazine-3-carboxamide], for which the “ASMS ratio (%)” value is, setting by setting: (n = 1) 13.0%; (n = 2) 0.0%.

On to `CCOc1cncc(-c2ccc(CN3CCN(c4ccc(C(=O)Nc5ccc(OC)cc5)nn4)CC3)c(OC)c2)c1` [B1O080-01, 6-[4-[[4-(5-Ethoxypyridin-3-yl)-2-methoxyphenyl]methyl]piperazin-1-yl]-N-(4-methoxyphenyl)pyridazine-3-carboxamide], for which, under setting [2], the “ASMS ratio (%) n = 1” value is listed as 1.4% and the “ASMS ratio (%) n = 2” value was found to be 3.4%.

Regarding `CCCNC(=O)c1ccc(N2CCN(Cc3ccc(-c4cncc(OCC)c4)cc3CC)CC2)nn1` [B1M076-01, 6-[4-[[4-(5-Ethoxypyridin-3-yl)-2-ethylphenyl]methyl]piperazin-1-yl]-N-propylpyridazine-3-carboxamide], under setting [1], the “ASMS ratio (%) n = 1” value stood at 0.5% and the “ASMS ratio (%) n = 2” value was determined as 1.5%.

With `CCOc1cccc(-c2ccc(CN3CCN(c4ccc(C(=O)NCC(F)(F)F)cc4)CC3)cc2F)c1` [B1K051-01, 4-[4-[[4-(3-Ethoxyphenyl)-3-fluorophenyl]methyl]piperazin-1-yl]-N-(2,2,2-trifluoroethyl)benzamide], under setting [1], the “ASMS ratio (%) n = 1” value is 2.8% and the “ASMS ratio (%) n = 2” value stood at 2.0%.

On to `CCOc1cncc(C#Cc2ccccc2C(=O)N2CCN(c3ccc(C(=O)NS(=O)(=O)CC45CC6CC(CC(C6)C4)C5)cc3)CC2)c1` [B2A030-01, N-(1-Adamantylmethylsulfonyl)-4-[4-[2-[2-(5-ethoxypyridin-3-yl)ethynyl]benzoyl]piperazin-1-yl]benzamide], for which, under “AS-MS, mixture library, Bcl-2”, the “ASMS ratio (%) n = 1” value came out at 0.0% and the “ASMS ratio (%) n = 2” value is recorded as 0.3%.

With `CCOc1cncc(C#Cc2cncc(C(=O)N3CCN(c4ccc(C(=O)N(CC)CC)cc4)CC3)c2)c1` [B4J032-01, 4-[4-[5-[2-(5-Ethoxypyridin-3-yl)ethynyl]pyridine-3-carbonyl]piperazin-1-yl]-N,N-diethylbenzamide], under setting [2], the “ASMS ratio (%) n = 1” value is reported as −7.2% and the “ASMS ratio (%) n = 2” value is recorded as 1.5%.

Turning to `CCOc1cncc(-c2ccc(C(=O)N3CCN(c4ccc(C(=O)NS(C)(=O)=O)cc4)CC3)cc2F)c1` [B2I028-01, 4-[4-[4-(5-Ethoxypyridin-3-yl)-3-fluorobenzoyl]piperazin-1-yl]-N-methylsulfonylbenzamide], for the setting “AS-MS, mixture library, Bcl-2”, the “ASMS ratio (%) n = 1” value worked out at 0.0% and the “ASMS ratio (%) n = 2” value was 0.0%.

As for `CCOc1cccc(-c2cc(CN3CCN(c4ccc(C(=O)NS(=O)(=O)c5ccc(NCCSc6ccccc6)c(C(F)(F)F)c5)cc4)CC3)cc(OCC)c2)c1` [B2R055-01, 4-[4-[[3-Ethoxy-5-(3-ethoxyphenyl)phenyl]methyl]piperazin-1-yl]-N-[4-(2-phenylsulfanylethylamino)-3-(trifluoromethyl)phenyl]sulfonylbenzamide], the “ASMS ratio (%)” value is, setting by setting: (n = 1) −3.3%; (n = 2) 6.3%.

In the case of `CCOc1cccc(-c2ccc(CN3CCN(c4ccc(C(=O)NS(=O)(=O)c5ccc(NCCSc6ccccc6)c([N+](=O)[O-])c5)nn4)CC3)cc2C)c1` [B2Q073-01], for the setting “AS-MS, mixture library, Bcl-2”, the “ASMS ratio (%) n = 1” value was determined as 0.0% and the “ASMS ratio (%) n = 2” value came to 0.0%.

For `CCOc1cncc(-c2cc(CN3CCN(c4ccc(C(=O)NCC56CC7CC(CC(C7)C5)C6)cc4)CC3)cc(OC(F)(F)F)c2)c1` [B1A064-01, N-(1-Adamantylmethyl)-4-[4-[[3-(5-ethoxypyridin-3-yl)-5-(trifluoromethoxy)phenyl]methyl]piperazin-1-yl]benzamide], under setting [1], the “ASMS ratio (%) n = 1” value was found to be 5.2% and the “ASMS ratio (%) n = 2” value was −1.6%.

Regarding `CCOc1cncc(-c2cnn(-c3cc(C(=O)N4CCN(c5ccc(C(=O)NCC67CC8CC(CC(C8)C6)C7)nn5)CC4)cc(C(F)(F)F)c3)c2)c1` [B1A022-01, N-(1-Adamantylmethyl)-6-[4-[3-[4-(5-ethoxypyridin-3-yl)pyrazol-1-yl]-5-(trifluoromethyl)benzoyl]piperazin-1-yl]pyridazine-3-carboxamide], under setting [1], the “ASMS ratio (%) n = 1” value is reported as 8.0% and the “ASMS ratio (%) n = 2” value is recorded as 7.7%.

Consider `CCOc1cncc(-c2ccc(CN3CCN(c4ccc(C(=O)NS(=O)(=O)CC56CC7CC(CC(C7)C5)C6)nn4)CC3)c(OC)c2)c1` [B2A080-01, N-(1-Adamantylmethylsulfonyl)-6-[4-[[4-(5-ethoxypyridin-3-yl)-2-methoxyphenyl]methyl]piperazin-1-yl]pyridazine-3-carboxamide], for which, under “AS-MS, mixture library, Bcl-2”, the “ASMS ratio (%) n = 1” value is on record as 0.0% and the “ASMS ratio (%) n = 2” value was found to be 0.0%.

Regarding `CCOc1cccc(-c2ccc(C(=O)N3CCN(c4ccc(C(=O)NS(C)(=O)=O)nn4)CC3)cc2F)c1` [B2I005-01, 6-[4-[4-(3-Ethoxyphenyl)-3-fluorobenzoyl]piperazin-1-yl]-N-methylsulfonylpyridazine-3-carboxamide], under “AS-MS, mixture library, Bcl-2”, the “ASMS ratio (%) n = 1” value amounted to 0.0% and the “ASMS ratio (%) n = 2” value is 0.0%.

As for `CCOc1cncc(-c2csc(CN3CCN(c4ccc(C(=O)N(CC)CC)nn4)CC3)c2)c1` [B4J094-01], for the setting “AS-MS, mixture library, Bcl-2”, the “ASMS ratio (%) n = 1” value is reported as −1.3% and the “ASMS ratio (%) n = 2” value was determined as 0.1%.

As for `CCOc1cncc(-c2ccccc2CN2CCN(c3ccc(C(=O)NS(=O)(=O)c4ccc(NCCSc5ccccc5)c([N+](=O)[O-])c4)nn3)CC2)c1` [B2Q072-01, 6-[4-[[2-(5-Ethoxypyridin-3-yl)phenyl]methyl]piperazin-1-yl]-N-[3-nitro-4-(2-phenylsulfanylethylamino)phenyl]sulfonylpyridazine-3-carboxamide], where the note is “AS-MS, mixture library, Bcl-2”, the “ASMS ratio (%) n = 1” value came to 10.2% and the “ASMS ratio (%) n = 2” value stood at 11.4%.

In the case of `CCOc1cncc(-c2cc(CN3CCN(c4ccc(C(=O)NCC56CC7CC(CC(C7)C5)C6)nn4)CC3)cc(OC(C)C)c2)c1` [B1A084-01, N-(1-Adamantylmethyl)-6-[4-[[3-(5-ethoxypyridin-3-yl)-5-propan-2-yloxyphenyl]methyl]piperazin-1-yl]pyridazine-3-carboxamide], under setting [1], the “ASMS ratio (%) n = 1” value is 2.1% and the “ASMS ratio (%) n = 2” value is −2.7%.

As for `CCOc1cncc(-c2ccc(C(=O)N3CCN(c4ccc(C(=O)NCC56CC7CC(CC(C7)C5)C6)cc4)CC3)cc2C)c1` [B1A026-01, N-(1-Adamantylmethyl)-4-[4-[4-(5-ethoxypyridin-3-yl)-3-methylbenzoyl]piperazin-1-yl]benzamide], under setting [1], the “ASMS ratio (%) n = 1” value came to 3.0% and the “ASMS ratio (%) n = 2” value is given as −2.9%.

For the compound `CCOc1cncc(C#Cc2ccccc2C(=O)N2CCN(c3ccc(C(=O)N(CC)CC)cc3)CC2)c1` [B4J030-01, 4-[4-[2-[2-(5-Ethoxypyridin-3-yl)ethynyl]benzoyl]piperazin-1-yl]-N,N-diethylbenzamide], under setting [2], the “ASMS ratio (%) n = 1” value is 0.1% and the “ASMS ratio (%) n = 2” value came out at 0.8%.

As for `CCOc1cncc(C#Cc2cncc(C(=O)N3CCN(c4ccc(C(=O)NS(=O)(=O)CCC(F)(F)F)nn4)CC3)c2)c1` [B2N010-01, 6-[4-[5-[2-(5-Ethoxypyridin-3-yl)ethynyl]pyridine-3-carbonyl]piperazin-1-yl]-N-(3,3,3-trifluoropropylsulfonyl)pyridazine-3-carboxamide], the “ASMS ratio (%)” value (n = 1) is listed as 0.0% and the “ASMS ratio (%)” value (n = 2) is recorded as 0.0%.

The values are drawn from US20240132431A1, “METHOD FOR ALKYLATING ACIDIC FUNCTIONAL GROUP” (Chugai Seiyaku Kabushiki Kaisha, priority 2021, published 2024).
